Reference: PMC9045377, “CpxA Phosphatase Inhibitor Activates CpxRA and Is a Potential Treatment for Uropathogenic Escherichia coli in a Murine Model of Infection” (Microbiology Spectrum, 2022)
“And” between values parts separate entries of the source, which are not always exact repeats. Equal values may be shown once. Read-outs that look alike come from different tables or passages of the source.

How the values were obtained:
[1] = Pharmacokinetics of compound 6 in mice: plasma, urine, bladder, kidneys by HPLC-MS/MS; format: in vivo, female CBA/J mice; settings: for concentration at 52 h / concentration at 48 h: subcutaneous; for concentration at 52 h: 100 mg/kg s.c. once a day at 0, 24, 48 h; for concentration at 48 h: 100 mg/kg s.c. once a day, sample just prior to the 48-h injection
Description: We developed a high-performance liquid chromatography-tandem mass spectrometry (HPLC-MS/MS) assay to measure compound 6 with a lower limit of quantification of 1 ng/mL. Single-dose PK parameters of compound 6 were determined in female CBA/J mice (n = 15) given 100 mg/kg s.c. dissolved in the vehicle. Blood was obtained from groups of 3 mice 1, 2, 4, 8, and 24 h postinjection.
As effective antimicrobials must achieve concentrations that exceed their MICs, we next determined whether compound 6 achieved plasma, kidney, bladder, and urinary concentrations in excess of its peak activating concentration of 10 μM in the CpxR reporter assay. […] Blood and urine samples were obtained just prior to the 48-h injection and at 52 h, 4 h after the final dose; we were only able to recover 2 urine samples at those time points. At 52 h, the animals were sacrificed, and tissue levels of compound 6 were determined in the bladder and kidneys. The mean peak and trough levels of compound 6 were 18.6 ± 3.2 μM and 9.6 ± 1.9 μM in the plasma and 344 μM and 151.7 μM in the urine, respectively. The mean tissue levels of compound 6 in the bladder and kidneys were 203 ± 28 μM and 48 ± 4 μM, respectively. Thus, compound 6 achieved levels in the urine, bladder, and kidneys that were ∼5- to 34-fold higher than its peak activating concentration.
Compound 6 was quantified by the IU Simon Comprehensive Cancer Center Clinical Pharmacology Analytical Core from mouse plasma and mouse urine using temazepam (TMP) as the internal standard and HPLC-MS/MS (5500 QTRAP; AB Sciex, Framingham, MA). In brief, compound 6 and TMP were separated by a gradient mobile phase (acetonitrile, 5 mM ammonium acetate) with a Restek Ultra C8 50 by 4.6 mm 5-micron column. The mass spectrometer utilized an electrospray ionization probe run in positive mode. The multiple reaction monitoring (MRM) Q1/Q3 (m/z) transitions for compound 6 and TMP were 187.9/146.0 and 301.1/254.9, respectively. Plasma or urine samples (20 μL) were transferred to glass culture tubes, TMP (20 μL of 0.1 ng/μL) was added as the internal standard, and the extraction was performed by the addition of 2 mL of methyl tertiary butyl ether. The samples were then vortexed, centrifuged, and the organic layer was transferred to a clean glass culture tube and evaporated to dryness. The samples were then reconstituted with 50 μL of the gradient mobile phase, and a 10-μL aliquot was injected to the HPLC-MS/MS. The standard curves were prepared using naive mouse plasma or naive mouse urine as the matched matrix and was linear from 1 to 1,000 ng/mL.
Compound 6 was quantified from the bladder and kidneys using a slightly modified method from the plasma sample analysis. Briefly, the tissue was weighed and then transferred to a polypropylene tube. Phosphate-buffered saline (PBS) (pH 7.4) was added to the tissue to bring the total volume to 0.5 mL (assumption 1 g = 1 mL). The tissue was homogenized using a TissueRuptor with a single use disposable probe. An aliquot (0.4 mL) was transferred to a clean polypropylene tube and temazepam (20 μL of 0.1 ng/μL) was added as the internal standard. The extraction procedure and HPLC-MS/MS conditions were the same as for the plasma samples. The standard curve was prepared using phosphate-buffered saline and was linear from 0.04 to 40 ng/sample.

CFT073 = experiment: Growth of CFT073 in human urine (OD600); format: cell-based, Escherichia coli; settings: 150 μM, 5 h
E. coli CFT073 proteome = experiment: Label-free quantitative proteomics of CFT073 grown in human urine (LC-MS/MS); format: cell-based, Escherichia coli; settings: 150 μM, 5 h
Description: E. coli CFT073 and CFT073ΔcpxA::cat were cultured overnight at 37°C in 5 mL of LB medium overnight with shaking. Bacteria were pelleted, washed twice in PBS, and suspended in 1 mL of PBS. Cells were then suspended in 10 mL of filter-sterilized pooled human urine obtained from 4 healthy female volunteers as described ([41]) to an OD600 of ∼0.02. Urine containing CFT073 was treated either with 150 mM compound 26 dissolved in 10 μL of DMSO to reach a final concentration of 150 μM or 10 μL of DMSO; urine containing CFT073ΔcpxA::cat was treated with 10 μL of DMSO. After 5 h of incubation, cultures were split into 5-mL aliquots, centrifuged, and the pellets were washed once with PBS and frozen at −80°C. One pellet from 4 independent experiments was used to detect CpxR-P using a Phos-Tag gel and Western blotting with an anti-MBP-CpxR antibody obtained from Thomas Silhavy as previously described ([31]). Densitometry values were determined using Photoshop 2021 (version 22.4.3), and the ratio of CpxR-P to CpxR was analyzed by one-way ANOVA adjusted for multiple comparisons using the Tukey procedure.
For label-free quantitative proteomics, cell pellets from 5 independent experiments were subjected for protein extraction followed by liquid chromatography-tandem mass spectrometry (LC-MS/MS). Sample preparation for LC-MS/MS analysis and proteomics pipeline was followed as described previously ([42]). In brief, bacteria were pelleted from urine cultures, and the pellets were solubilized in 1 mL of 8 M urea lysis buffer. Equal amounts of proteins (100 μg) were subjected for overnight trypsin/LysC (V5071; Promega) digestion. One microgram of bovine serum albumin (BSA) was added to each sample as an internal control prior to in-solution digestion. LC-MS/MS analysis was performed on a Dionex UltiMate 3000 (Thermo Fisher Scientific) system connected to a Q-Exactive HF-X mass spectrometer (Thermo Fisher Scientific). Detail settings of the LC-MS/MS analysis was described previously ([42]).
Peptide spectrum matching of MS/MS spectra was searched against the UniProt E. coli CFT073-UPEC database (TaxID 199310) using the Sequest algorithm within Proteome Discoverer version 2.4 software (Thermo Fisher Scientific). The Sequest database search was performed with the following parameters: trypsin enzyme cleavage specificity, 2 possible missed cleavages, 10 ppm mass tolerance for precursor ions, 0.02 Da mass tolerance for fragment ions. Search parameters permitted dynamic modification of methionine oxidation (+15.9949 Da) and static modification of carbamidomethylation (+57.0215 Da) on cysteine. Peptide assignments from the database search were filtered to a 1% false discovery rate. The relative label-free quantitative and comparative among the samples were performed using the Minora algorithm and Proteome Discoverer 2.4 software. Differential abundance of proteins between conditions was defined as a 1.5-fold change in relative abundance with an adjusted P value of <0.05.

[2] = threshold 1.5-fold, adjusted P <0.05

Compound: NC1CCCc2c1[nH]c1ccc(F)cc21 (centres unmarked) [compound 6]
- concentration at 52 h ([1]; female, CBA/J, mouse, bladder, at 52 h, read-out: mean tissue level in bladder): 203 ± 28 µM
- concentration at 52 h ([1]; female, CBA/J, mouse, kidneys, at 52 h, read-out: mean tissue level in kidneys): 48 ± 4 µM
- concentration at 24 h ([1]; female, CBA/J, mouse, plasma, sc, single dose 100 mg/kg s.c., read-out: plasma concentration at 24 h, mean ± SD): 2390 ng/mL and 11.7 µM
- Tmax ([1]; female, CBA/J, mouse, plasma, sc, single dose 100 mg/kg s.c., read-out: time of peak plasma concentration): 4 h
- concentration at 52 h ([1]; female, CBA/J, mouse, plasma, sample at 52 h, read-out: mean peak level in plasma): 18.6 ± 3.2 µM
- concentration at 48 h ([1]; female, CBA/J, mouse, plasma, read-out: mean trough level in plasma): 9.6 ± 1.9 µM
- concentration at 52 h ([1]; female, CBA/J, mouse, urine, sample at 52 h, 2 samples, read-out: mean peak level in urine): 344 µM
- concentration at 48 h ([1]; female, CBA/J, mouse, urine, 2 samples, read-out: mean trough level in urine): 152 µM
- peak plasma concentration, mean ± SD ([1]; single dose 100 mg/kg s.c., at 4 h, 100 mg/kg): 3,305 ± 696 ng/mL and 16.2 ± 3.4 μM

Compound: N[C@@H]1CCCc2c1[nH]c1cc(F)c(F)cc21 [compound 26]
- effect on bacterial growth (CFT073): does not inhibit bacterial growth
- OD600 of treated CFT073, mean ± SD (CFT073; 5 independent experiments): 0.52 ± 0.2
- additional higher-abundance proteins vs CFT073 control only (E. coli CFT073 proteome): 27
- additional higher-abundance proteins vs CFT073ΔcpxA::cat control only (E. coli CFT073 proteome): 28
- additional lower-abundance proteins vs CFT073 control only (E. coli CFT073 proteome): 12
- additional lower-abundance proteins vs CFT073ΔcpxA::cat control only (E. coli CFT073 proteome): 10
- number of higher abundance proteins vs both controls (E. coli CFT073 proteome; [2]): 42
- number of lower abundance proteins vs both controls (E. coli CFT073 proteome; [2]): 53
